Reference: ChEMBL document CHEMBL2439971, “Design, synthesis and antiproliferative evaluation of fluorenone analogs with DNA topoisomerase I inhibitory properties” (Bioorg Med Chem, 2013)

Legend:
Format in all cases: functional
HCT-116 = assay: Cytotoxicity against human HCT116 cells after 48 hrs by sulforhodamine B assay; settings: HCT-116, 48 h
NCI-H522 = assay: Cytotoxicity against human NCI-H522 cells after 48 hrs by sulforhodamine B assay; settings: NCI-H522, 48 h
NCI-H322M = assay: Cytotoxicity against human NCI-H322M cells after 48 hrs by sulforhodamine B assay
NCI-H23 = assay: Cytotoxicity against human NCI-H23 cells after 48 hrs by sulforhodamine B assay; settings: NCI-H23, 48 h
HOP-92 [1] = assay: Cytotoxicity against human HOP92 cells after 48 hrs by sulforhodamine B assay; settings: HOP-92, 48 h
A549 = assay: Cytotoxicity against human A549/ATCC cells after 48 hrs by sulforhodamine B assay; settings: A549, 48 h
RPMI-8226 = assay: Cytotoxicity against human RPMI8226 cells after 48 hrs by sulforhodamine B assay; settings: RPMI-8226, 48 h
CCRF-CEM = assay: Cytotoxicity against human CCRF-CEM cells after 48 hrs by sulforhodamine B assay
CAKI-1 = assay: Cytotoxicity against human CAKI-1 cells at 10 uM after 48 hrs by sulforhodamine B assay relative to control
[2] = Cytotoxicity against human Hs 578T cells at 10 uM after 48 hrs by sulforhodamine B assay relative to control
PC-3 = assay: Cytotoxicity against human PC3 cells at 10 uM after 48 hrs by sulforhodamine B assay relative to control
SN12C [3] = assay: Cytotoxicity against human SN12C cells at 10 uM after 48 hrs by sulforhodamine B assay relative to control
ACHN = assay: Cytotoxicity against human ACHN cells at 10 uM after 48 hrs by sulforhodamine B assay relative to control
786-0 [4] = assay: Cytotoxicity against human 786-0 cells at 10 uM after 48 hrs by sulforhodamine B assay relative to control
OVCAR-8 [5] = assay: Cytotoxicity against human OVCAR8 cells at 10 uM after 48 hrs by sulforhodamine B assay relative to control
OVCAR-3 = assay: Cytotoxicity against human OVCAR3 cells at 10 uM after 48 hrs by sulforhodamine B assay relative to control
SK-MEL-2 [6] = assay: Cytotoxicity against human SK-MEL-2 cells at 10 uM after 48 hrs by sulforhodamine B assay relative to control
SF-539 [7] = assay: Cytotoxicity against human SF539 cells at 10 uM after 48 hrs by sulforhodamine B assay relative to control
SNB-19 = assay: Cytotoxicity against human SNB19 cells at 10 uM after 48 hrs by sulforhodamine B assay relative to control
SF-295 [8] = assay: Cytotoxicity against human SF295 cells at 10 uM after 48 hrs by sulforhodamine B assay relative to control
SF-268 [9] = assay: Cytotoxicity against human SF268 cells at 10 uM after 48 hrs by sulforhodamine B assay relative to control
HT-29 = assay: Cytotoxicity against human HT-29 cells at 10 uM after 48 hrs by sulforhodamine B assay relative to control
HCT-15 = assay: Cytotoxicity against human HCT15 cells at 10 uM after 48 hrs by sulforhodamine B assay relative to control
HOP-92 [10] = assay: Cytotoxicity against human HOP92 cells at 10 uM after 48 hrs by sulforhodamine B assay relative to control
MOLT-4 = assay: Cytotoxicity against human MOLT4 cells at 10 uM after 48 hrs by sulforhodamine B assay relative to control
K562 = assay: Cytotoxicity against human K562 cells at 10 uM after 48 hrs by sulforhodamine B assay relative to control
MDA-MB-468 = assay: Cytotoxicity against human MDA-MB-468 cells after 48 hrs by sulforhodamine B assay; settings: MDA-MB-468, 48 h
BT-549 = assay: Cytotoxicity against human BT549 cells after 48 hrs by sulforhodamine B assay; settings: BT-549, 48 h
UO-31 = assay: Cytotoxicity against human UO31 cells after 48 hrs by sulforhodamine B assay; settings: UO-31, 48 h
TK-10 = assay: Cytotoxicity against human TK10 cells after 48 hrs by sulforhodamine B assay; settings: TK-10, 48 h
SN12C [11] = assay: Cytotoxicity against human SN12C cells after 48 hrs by sulforhodamine B assay
RXF 393 = assay: Cytotoxicity against human RXF393 cells after 48 hrs by sulforhodamine B assay; settings: RXF 393, 48 h
786-0 [12] = assay: Cytotoxicity against human 786-0 cells after 48 hrs by sulforhodamine B assay; settings: 786-0, 48 h
OVCAR-8 [13] = assay: Cytotoxicity against human OVCAR8 cells after 48 hrs by sulforhodamine B assay; settings: OVCAR-8, 48 h
SK-MEL-5 = assay: Cytotoxicity against human SK-MEL-5 cells after 48 hrs by sulforhodamine B assay; settings: SK-MEL-5, 48 h
SK-MEL-2 [14] = assay: Cytotoxicity against human SK-MEL-2 cells after 48 hrs by sulforhodamine B assay; settings: SK-MEL-2, 48 h
SF-539 [15] = assay: Cytotoxicity against human SF539 cells after 48 hrs by sulforhodamine B assay; settings: SF-539, 48 h
SF-268 [16] = assay: Cytotoxicity against human SF268 cells after 48 hrs by sulforhodamine B assay; settings: SF-268, 48 h
SF-295 [17] = assay: Cytotoxicity against human SF295 cells after 48 hrs by sulforhodamine B assay; settings: SF-295, 48 h
[18] = read-out: LC50 (the source's name)

CCCCNCC(=O)Nc1ccc2c(c1)C(=O)c1cc(NC(=O)CNCCCC)ccc1-2 gave a GI50 (HCT-116) of 0.81 µM, a TGI (HCT-116) of 2.18 µM and a CC50 (HCT-116; [18]) of 5.16 µM. It also gave a GI50 (NCI-H522) of 2.08 µM, a TGI (NCI-H522) of 4.08 µM and a CC50 (NCI-H522; [18]) of 7.99 µM. For the same molecule, the GI50 (NCI-H322M) was 2.12 µM, the TGI (NCI-H322M) was 6.93 µM and the CC50 (NCI-H322M; [18]) was 31.5 µM. It also gave a GI50 (NCI-H23) of 2.63 µM, a TGI (NCI-H23) of 10.1 µM and a CC50 (NCI-H23; [18]) of 35.7 µM. It also gave a GI50 (HOP-92 [1]) of 1.4 µM, a TGI (HOP-92 [1]) of 3.77 µM and a CC50 (HOP-92 [1]; [18]) of 10.6 µM. The GI50 (A549) was 1.53 µM, the TGI (A549) was 3.37 µM and the CC50 (A549; [18]) was 7.39 µM. The GI50 (RPMI-8226) was 1.86 µM, the TGI (RPMI-8226) was 4.9 µM and the CC50 (RPMI-8226; [18]) was 4.6 µM. The GI50 (CCRF-CEM) was 1.6 µM, the TGI (CCRF-CEM) was 4.02 µM and the CC50 (CCRF-CEM; [18]) was 10.7 µM. It also gave an Activity (CAKI-1) of 62.66%, an Activity [2] of 37.13% and an Activity (PC-3) of -4.48%. It also gave an Activity (SN12C [3]) of 67.76%, an Activity (ACHN) of 18.19% and an Activity (786-0 [4]) of -73.24%. The Activity (OVCAR-8 [5]) was 9.6%, the Activity (OVCAR-3) was -51.72% and the Activity (SK-MEL-2 [6]) was -63.34%. For the same molecule, the Activity (SF-539 [7]) was -82.99%, the Activity (SNB-19) was 39.02% and the Activity (SF-295 [8]) was -26.11%. For the same molecule, the Activity (SF-268 [9]) was 38.37%, the Activity (HT-29) was -52.59% and the Activity (HCT-15) was 24.17%. It also gave an Activity (HOP-92 [10]) of 6.92%, an Activity (MOLT-4) of -42.18% and an Activity (K562) of -53.98%. The GI50 (MDA-MB-468) was 1.85 µM, the TGI (MDA-MB-468) was 3.57 µM and the CC50 (MDA-MB-468; [18]) was 6.89 µM. For the same molecule, the GI50 (BT-549) was 2.05 µM, the TGI (BT-549) was 6.05 µM and the CC50 (BT-549; [18]) was 24.6 µM. The GI50 (UO-31) was 2.04 µM, the TGI (UO-31) was 5.47 µM and the CC50 (UO-31; [18]) was 25.2 µM. It also gave a GI50 (TK-10) of 2.43 µM, a TGI (TK-10) of 6.67 µM and a CC50 (TK-10; [18]) of 24.1 µM. It also gave a GI50 (SN12C [11]) of 3.48 µM, a TGI (SN12C [11]) of 14.6 µM and a CC50 (SN12C [11]; [18]) of 41.2 µM. It also gave a GI50 (RXF 393) of 1.83 µM, a TGI (RXF 393) of 3.52 µM and a CC50 (RXF 393; [18]) of 6.78 µM. For the same molecule, the GI50 (786-0 [12]) was 1.43 µM, the TGI (786-0 [12]) was 2.82 µM and the CC50 (786-0 [12]; [18]) was 5.56 µM. The GI50 (OVCAR-8 [13]) was 2.19 µM, the TGI (OVCAR-8 [13]) was 6.16 µM and the CC50 (OVCAR-8 [13]; [18]) was 28.9 µM. It also gave a GI50 (SK-MEL-5) of 1.77 µM, a TGI (SK-MEL-5) of 3.18 µM and a CC50 (SK-MEL-5; [18]) of 5.71 µM. For the same molecule, the GI50 (SK-MEL-2 [14]) was 1.76 µM, the TGI (SK-MEL-2 [14]) was 3.3 µM and the CC50 (SK-MEL-2 [14]; [18]) was 6.18 µM. The GI50 (SF-539 [15]) was 1.76 µM, the TGI (SF-539 [15]) was 3.26 µM and the CC50 (SF-539 [15]; [18]) was 6.05 µM. It also gave a GI50 (SF-268 [16]) of 1.69 µM, a TGI (SF-268 [16]) of 3.97 µM and a CC50 (SF-268 [16]; [18]) of 9.33 µM. For the same molecule, the GI50 (SF-295 [17]) was 1.67 µM, the TGI (SF-295 [17]) was 3.47 µM and the CC50 (SF-295 [17]; [18]) was 7.2 µM.
